In patent publication US5455271A, “Tight-binding inhibitors of leukotriene A4 hydrolase” (The Scripps Research Institute, priority 1993, dated 1995):
Structures can show the parent of a compound that is named as a salt. Where two headings read alike, the source gives them in different places. Blank lines part the entries; values can stand above or below the compound they belong to.

Experiments:
[1] = molecular target: T1, LTA4 hydrolase (epoxide hydrolase activity) (Homo sapiens, UniProt P09960); test: Inhibition of epoxide hydrolase activity of LTA4 hydrolase, LTA4 as substrate; format: biochemical
T1 construct: obtained from human leukocytes and was purified to apparent homogeneity; from tissue; host or cells: human leukocytes (purified to apparent homogeneity)
T1 sequence (P09960 1-611): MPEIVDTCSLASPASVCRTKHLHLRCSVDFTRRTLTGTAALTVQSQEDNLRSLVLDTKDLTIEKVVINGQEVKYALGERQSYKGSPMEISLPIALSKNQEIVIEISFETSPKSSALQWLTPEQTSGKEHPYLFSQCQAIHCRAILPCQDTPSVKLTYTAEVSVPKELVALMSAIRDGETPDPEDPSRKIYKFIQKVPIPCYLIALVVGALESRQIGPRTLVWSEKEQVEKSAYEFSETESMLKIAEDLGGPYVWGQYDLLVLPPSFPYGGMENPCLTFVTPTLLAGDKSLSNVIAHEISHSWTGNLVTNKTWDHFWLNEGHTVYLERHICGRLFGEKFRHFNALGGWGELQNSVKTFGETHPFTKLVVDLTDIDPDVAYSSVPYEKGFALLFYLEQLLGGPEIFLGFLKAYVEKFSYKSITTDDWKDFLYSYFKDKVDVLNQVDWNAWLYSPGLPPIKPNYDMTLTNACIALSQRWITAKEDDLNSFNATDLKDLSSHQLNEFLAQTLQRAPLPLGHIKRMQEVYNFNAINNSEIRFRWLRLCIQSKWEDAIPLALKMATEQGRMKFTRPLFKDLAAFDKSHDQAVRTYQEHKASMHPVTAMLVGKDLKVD

LTA4 hydrolase [2] = molecular target: T2, LTA4 hydrolase (Homo sapiens, UniProt P09960); conditions: literature; cited from earlier work
T2 sequence (P09960 1-611): T1 sequence (P09960 1-611)

LTA4 hydrolase [3] = molecular target: T2, LTA4 hydrolase; test: Kinetic parameters of LTA4 hydrolase-catalyzed hydrolysis of LTA4 and amide substrates; format: biochemical
Method: Several amino acid amides were assayed as substrates for LTA4 hydrolase. Yuan et al., Bioorg. & Med. Chem. Lett., 1:551 (1991).
^a Determined in 50 mM TrisCl, pH 7.6, in the presence of 0.1 M NaCl, […]

Thromboxane B2 (TXB2) = test: Inhibition of thromboxane B2 (TXB2) in calcium ionophore A-23187-stimulated human blood; format: cell-based
LTA4 hydrolase [4] = molecular target: T2, LTA4 hydrolase; test: Inhibition of LTA4 hydrolase, amidase (aminopeptidase) activity, L-alanyl p-nitroanilide as substrate; format: biochemical; design: LTA4 hydrolase purified from human leukocytes; from tissue; host or cells: human leukocytes (purified enzyme); conditions: for IC50: thiols with 5 mM DTT
aminopeptidase M = molecular target: T3, aminopeptidase M (Sus scrofa, UniProt P15145); test: Inhibition of aminopeptidase M; format: biochemical
T3 sequence (P15145 1-963): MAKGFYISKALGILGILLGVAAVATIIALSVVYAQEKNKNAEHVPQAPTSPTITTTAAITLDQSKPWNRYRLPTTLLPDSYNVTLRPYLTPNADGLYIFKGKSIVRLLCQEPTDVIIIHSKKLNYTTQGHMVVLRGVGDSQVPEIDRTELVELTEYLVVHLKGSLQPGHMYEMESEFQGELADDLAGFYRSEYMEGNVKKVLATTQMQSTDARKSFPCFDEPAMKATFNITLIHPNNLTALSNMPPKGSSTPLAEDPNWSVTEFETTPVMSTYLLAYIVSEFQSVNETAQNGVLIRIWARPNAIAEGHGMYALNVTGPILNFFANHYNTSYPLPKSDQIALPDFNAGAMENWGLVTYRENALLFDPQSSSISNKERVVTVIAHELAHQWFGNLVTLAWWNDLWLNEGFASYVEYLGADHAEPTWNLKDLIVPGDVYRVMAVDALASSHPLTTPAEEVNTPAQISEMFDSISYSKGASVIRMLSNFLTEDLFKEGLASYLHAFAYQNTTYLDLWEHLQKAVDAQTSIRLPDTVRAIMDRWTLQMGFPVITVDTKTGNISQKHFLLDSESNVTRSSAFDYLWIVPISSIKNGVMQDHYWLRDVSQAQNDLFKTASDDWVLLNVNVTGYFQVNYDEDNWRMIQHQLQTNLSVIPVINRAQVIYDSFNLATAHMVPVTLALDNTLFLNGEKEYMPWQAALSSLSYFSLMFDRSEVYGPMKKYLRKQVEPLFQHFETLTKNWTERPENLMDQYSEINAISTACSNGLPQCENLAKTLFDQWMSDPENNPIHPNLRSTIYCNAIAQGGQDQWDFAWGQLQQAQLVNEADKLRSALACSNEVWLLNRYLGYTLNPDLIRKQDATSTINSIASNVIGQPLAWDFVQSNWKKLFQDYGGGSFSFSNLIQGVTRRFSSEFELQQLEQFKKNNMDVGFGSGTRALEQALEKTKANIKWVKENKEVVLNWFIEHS

Leukotriene B4 (LTB4) = test: Inhibition of leukotriene B4 (LTB4) in calcium ionophore A-23187-stimulated human blood; format: cell-based; conditions: Homo sapiens
[5] = molecular target: cytosolic leucine aminopeptidase; test: Inhibition of cytosolic leucine aminopeptidase; format: biochemical
15-lipoxygenase = test: Inhibition of 15-lipoxygenase in A-23187-stimulated PMNL with exogenous arachidonic acid; format: cell-based
Text: (§1) Compounds 24 and 27 were also studied for their abilities to inhibit 5- and 15-lipoxygenase using calcium ionophore A-23187-stimulated polymorphonuclear leukocytes (PMNL) in the presence of exogenous arachidonic acid. […] LTC4 Synthase activity in human platelets was also not inhibited.

LTC4 Synthase = test: Inhibition of LTC4 synthase activity in human platelets; format: cell-based
Text: as §1

[6] = test system: LTB4 Formation in intact PMNL; test: LTB4 formation in calcium ionophore A-23187-stimulated intact PMNL; format: cell-based; conditions: for IC50: Homo sapiens, PMNL, calcium ionophore A-23187-stimulated, dose dependent
LTA4 hydrolase [7] = molecular target: T2, LTA4 hydrolase; conditions: LTA4 as substrate, Radmark et al., cited from earlier work
[8] = Table 1, 50 mM TrisCl, pH 7.6, 0.1 M NaCl
[9] = Table 5, read-out: IC50 Epoxide Hydrolase
[10] = Table 4, 10 μM, read-out: % Inhibition TXB2
[11] = L-alanyl p-nitroanilide 1.5 mM, pH 8.0
[12] = Table 3, read-out: % Inhibition LTB4
[13] = Table 4, read-out: % Inhibition LTB4
[14] = read-out: % Inhibition TXB2, Table 4, 10 μM
[15] = read-out: % Inhibition LTB4, Table 4
[16] = read-out: % Inhibition TXB2, Table 3, 1 μM
[17] = read-out: % Inhibition TXB2, Table 3, 3 μM
[18] = read-out: % Inhibition TXB2, Table 3, 10 μM
[19] = read-out: % Inhibition LTB4, Table 3

SMILES: N[C@@H](Cc1ccc(OCc2ccccc2)cc1)C(=O)c1ccc(C(F)(F)F)cc1 [Compound 29]
IC50 [1, 9]: > 100 µM | inhibition at 10 µM (Thromboxane B2 (TXB2); [10]): 0% | IC50 (LTA4 hydrolase [4]; [11]): 10 µM

SMILES: N[C@@H](Cc1ccccc1)[C@H](O)C(=O)OCc1ccccc1 [Compound 20]
IC50 [1, 9]: 100 µM | inhibition of LTA4 hydrolase (in words) (LTA4 hydrolase [4]): bound more tightly than the amide | IC50 (LTA4 hydrolase [4]; [11]): 0.8 µM

SMILES: CCCCCCCC\C=C/C=C/C=C/[C@@H]1O[C@H]1CCCC(=O)O [LTA3]
inhibition of LTA4 hydrolase, type of inhibition (in words) (LTA4 hydrolase [2]): irreversibly inhibited

SMILES: CC/C=C\C/C=C\C\C=C/C=C/C=C/[C@@H]1O[C@H]1CCCC(=O)O [LTA5]
inhibition of LTA4 hydrolase, type of inhibition (in words) (LTA4 hydrolase [2]): irreversibly inhibited

SMILES: N[C@@H](Cc1ccccc1)C(=O)Cc1ccccc1 [Compound 30]
IC50 [1, 9]: > 100 µM | inhibition at 10 µM (Thromboxane B2 (TXB2); [10]): 6% | inhibition at 10 µM (Leukotriene B4 (LTB4); [13]): 15% | Ki (LTA4 hydrolase [4]; L-alanyl p-nitroanilide 1.5 mM, pH 8.0, Dixon plot): 14 µM

SMILES: CC(C)C[C@H](NC(=O)[C@@H](O)[C@H](N)Cc1ccccc1)C(=O)O [Bestatin]
inhibition of LTA4 hydrolase, type of inhibition (in words) (LTA4 hydrolase [2]): reversible inhibitors

SMILES: Cl.N[C@H](CS)Cc1ccc(OCc2ccccc2)cc1 [Compound 27, (2S)-3-[4-(benzyloxy)phenyl]-2-amino-propanethiol HCl]
IC50 [5]: > 50 µM | inhibition at 10 µM (Thromboxane B2 (TXB2); [14]): 100% | inhibition at 10 µM (Leukotriene B4 (LTB4); [15]): 100% | IC50 (Leukotriene B4 (LTB4); read-out: IC50 in this assay (human blood)): ~1.1 µM | inhibition of 15-lipoxygenase activity (in words) (15-lipoxygenase): No inhibition | inhibition of LTC4 synthase activity (in words) (LTC4 Synthase): not inhibited | IC50 [6]: 0.1 to 0.2 µM

SMILES: N[C@@H](Cc1ccc(OCc2ccccc2)cc1)C(=O)C(=O)OCc1ccccc1 [Compound 26]
IC50 [5]: > 100 µM | inhibition at 1 µM (Thromboxane B2 (TXB2); [16]): 8% | inhibition at 3 µM (Thromboxane B2 (TXB2); [17]): 7% | inhibition at 10 µM (Thromboxane B2 (TXB2); [18]): 28% | inhibition at 1 µM (Leukotriene B4 (LTB4); [19]): 15% | inhibition at 3 µM (Leukotriene B4 (LTB4); [19]): 17% | inhibition at 10 µM (Leukotriene B4 (LTB4); [19]): 24%

SMILES: N[C@@H](Cc1ccc(OCc2ccccc2)cc1)[C@H](O)C(=O)OCc1ccccc1 [Compound 24]
IC50 (aminopeptidase M): > 100 µM | IC50 [5]: 80 µM | inhibition at 1 µM (Thromboxane B2 (TXB2); [16]): 0% | inhibition at 3 µM (Thromboxane B2 (TXB2); [17]): 17% | inhibition at 10 µM (Thromboxane B2 (TXB2); [18]): 4% | inhibition at 10 µM (Thromboxane B2 (TXB2); [14]): 0% | inhibition at 1 µM (Leukotriene B4 (LTB4); [19]): 7% | inhibition at 3 µM (Leukotriene B4 (LTB4); [19]): 44% | inhibition at 10 µM (Leukotriene B4 (LTB4); [19]): 39% | inhibition at 10 µM (Leukotriene B4 (LTB4); [15]): 18% | inhibition of 15-lipoxygenase activity (in words) (15-lipoxygenase): No inhibition | inhibition of LTC4 synthase activity (in words) (LTC4 Synthase): not inhibited | IC50 [6]: 0.1 to 0.2 µM | activity in intact PMNL compared with isolated enzyme (in words) ([6]; intact PMNL versus isolated enzyme): unexpectedly much more active in this assay using intact PMNL than in assays with the isolated enzyme

More lines, main results first:

IC50 [1]: 240 µM
SMILES: C[C@H](CS)C(=O)N1CCC[C@H]1C(=O)O [Captopril, reference compound]
inhibition of LTA4 hydrolase, type of inhibition (in words) (LTA4 hydrolase [2]): reversible inhibitors

acceptance as substrate for LTA4 hydrolase (in words) (LTA4 hydrolase [3]): not acceptable | Vmax (LTA4 hydrolase [3]; [8]): 0 nmol/min/mg
SMILES: C[C@@H](N)C(=O)Nc1ccc([N+](=O)[O-])cc1 [D-Ala p-nitroanilide, D-Alanine p-nitroanilide]

IC50 [1, 9]: 100 µM | IC50 (aminopeptidase M): 80 µM | tightness of binding to the enzyme relative to Compound 23 (LTA4 hydrolase [4]; Compound 25 versus Compound 23): 30 times | IC50 (LTA4 hydrolase [4]; [11]): 0.6 µM | selectivity for LTA4 binding (in words) (LTA4 hydrolase [4]; versus other aminopeptidases): selective for LTA4 binding
SMILES: COC(=O)C(=O)[C@@H](N)Cc1ccc(OCc2ccccc2)cc1 [Compound 25]
inhibition at 1 µM (Thromboxane B2 (TXB2); Table 3, 1 μM, read-out: % Inhibition TXB2): 25% | inhibition at 3 µM (Thromboxane B2 (TXB2); Table 3, 3 μM, read-out: % Inhibition TXB2): 20% | inhibition at 10 µM (Thromboxane B2 (TXB2); Table 3, 10 μM, read-out: % Inhibition TXB2): 41% | inhibition at 1 µM (Leukotriene B4 (LTB4); [12]): 29% | inhibition at 3 µM (Leukotriene B4 (LTB4); [12]): 59% | inhibition at 10 µM (Leukotriene B4 (LTB4); [12]): 39%

IC50 (LTA4 hydrolase [4]; [11]): 3 µM
SMILES: N[C@@H](Cc1ccc(OCc2ccccc2)cc1)C(=O)c1cccc(C(=O)O)c1 [Compound 28]
inhibition at 10 µM (Thromboxane B2 (TXB2); [10]): 0% | inhibition at 10 µM (Leukotriene B4 (LTB4); [13]): 16%

inhibition of LTA4 hydrolase (in words) (LTA4 hydrolase [4]): comparable with Compound 2 | IC50 (LTA4 hydrolase [4]; [11]): 80 µM
SMILES: COC(=O)C(=O)[C@@H](N)Cc1ccccc1 [Compound 21]
inhibition at 10 µM (Thromboxane B2 (TXB2); [10]): 0% | inhibition at 10 µM (Leukotriene B4 (LTB4); [13]): 8%

IC50 (LTA4 hydrolase [4]; [11]): 20 µM
SMILES: N[C@@H](Cc1ccccc1)C(=O)CCCC(=O)O [Compound 45, (6S) -5-Oxo-6-amino-7-phenyl-heptanoic acid HCl]
inhibition at 10 µM (Thromboxane B2 (TXB2); [10]): 12% | inhibition at 10 µM (Leukotriene B4 (LTB4); [13]): 11%

acceptance as substrate for LTA4 hydrolase (in words) (LTA4 hydrolase [3]): the best
SMILES: C[C@H](N)C(=O)Nc1ccc([N+](=O)[O-])cc1 [L-Ala p-nitroanilide, L-alanine p-nitroanilide]

kcat /Km (LTA4 hydrolase [3]; [8]): 9.0 × 10^4 M^- x^-1
SMILES: CCCCC/C=C\C\C=C/C=C/C=C/[C@@H]1O[C@H]1CCCC(=O)O [LTA4, 5(S)-5,6-oxido-7,9-trans-11,14-cis-eicosatetraenoic acid]
Vmax reported for native LTA4 hydrolase (LTA4 hydrolase [7]): 1.7 to 3.0 µmol/min/mg | Km (LTA4 hydrolase [7]; native LTA4 hydrolase, read-out: Km reported for native LTA4 hydrolase): 7 to 30 µM | inhibition of LTA4 hydrolase, type of inhibition (in words) (LTA4 hydrolase [2]): irreversibly inhibited
